Assay results as given in patent publication US20230085307A1, “PYRIDAZINONE COMPOUND AND HERBICIDE” (NISSAN CHEMICAL CORPORATION, priority 2019, published 2023).

Columns and labels:
late watergrass = assay: Test Example 2: herbicidal activity, application during weed generation under submerged conditions (Table 17, symbol A); format: in vivo, late watergrass (Echinochloa oryzicola); settings: application during weed generation, submerged conditions
Outline: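 In this pot test, flooded alluvial soil (water depth 4 cm) holds all three species sown as a mixture. Once seedlings have one to two leaves, the compound's emulsion, thinned with water to the intended dose, is poured on the water; grading follows after three weeks on the earlier criteria.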

Japanese bulrush = assay: Test Example 2: herbicidal activity, application during weed generation under submerged conditions (Table 17, symbol B); format: in vivo, Japanese bulrush (Schoenoplectus juncoides); settings: application during weed generation, submerged conditions
Protocol: (§1) [Test Example 2] Herbicidal Activity Test by Application during Weed Generation under Submerged Conditions After alluvial soil was placed into 1/10000 are of Wagner pot, water was poured and mixed to form a submerged condition having a water depth of 4 cm. Seeds of late watergrass, Japanese bulrush, and oval-leafed pondweed were sowed in a mixed manner in the aforementioned pot, and the pot was placed in a greenhouse at 25° C. to 30° C. for growth of the plants. When late watergrass, Japanese bulrush, and oval-leafed pondweed were grown to one leaf stage to two leaf stage, the emulsion agent of the compound of the present invention prepared according to Formulation Example 2 was diluted with water so as to achieve a predetermined herbicide amount, and the diluted emulsion agent was applied to the surface of the water. Three weeks after the herbicide application, the effect of the herbicide on each plant was evaluated according to the criteria of Test Example 1.

oval-leafed pondweed = assay: Test Example 2: herbicidal activity, application during weed generation under submerged conditions (Table 17, symbol C); format: in vivo, oval-leafed pondweed (Monochoria vaginalis); settings: application during weed generation, submerged conditions
Protocol: as §1

barnyard grass [1] = assay: Test Example 3: herbicidal effect by foliage application, Wagner pot (Table 18, symbol H); format: in vivo, barnyard grass (Echinochloa crus-galli)
Outline: (§2)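 Plants were sown in alluvial soil held under 0.1–0.5 cm standing water and grown 14 days in a greenhouse at 25–30 °C. An emulsifiable formulation, water-diluted to the set dose, was then sprayed onto the foliage, and effects were scored three weeks later using previously defined criteria.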

Chinese sprangletop = assay: Test Example 3: herbicidal effect by foliage application, Wagner pot (Table 18, symbol D); format: in vivo, chinese sprangletop (Leptochloa chinensis)
Outline: as §2

rice flat sedge = assay: Test Example 3: herbicidal effect by foliage application, Wagner pot (Table 18, symbol E); format: in vivo, rice flat sedge (Cyperus iria)
Outline: as §2

southern crabgrass = assay: Test Example 5: herbicidal effect by foliage application, plastic box (Table 20, symbol F); format: in vivo, southern crabgrass (Digitaria ciliaris); settings: for F: southern crabgrass, herbicidal effect grade: foliage application, three weeks after application
Outline: (§3)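 Plants sown in sterilized diluvial soil and grown 14 days in a greenhouse at 25° C to 30° C, then sprayed on the foliage with the compound's emulsion diluted in water to a predetermined herbicide amount. Injury to weeds and crops scored three weeks after application on a visual rating scale.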

green foxtail = assay: Test Example 5: herbicidal effect by foliage application, plastic box (Table 20, symbol G); format: in vivo, green foxtail (Setaria viridis); settings: for G: green foxtail, herbicidal effect grade: foliage application, three weeks after application
Outline: as §3

barnyard grass [2] = assay: Test Example 5: herbicidal effect by foliage application, plastic box (Table 20, symbol H); format: in vivo, barnyard grass (Echinochloa crus-galli); settings: for H: barnyard grass, herbicidal effect grade: foliage application, three weeks after application
Outline: as §3

wild oat = assay: Test Example 5: herbicidal effect by foliage application, plastic box (Table 20, symbol I); format: in vivo, wild oat (Avena fatua); settings: for I: wild oat, herbicidal effect grade: foliage application, three weeks after application
Outline: as §3

blackgrass = assay: Test Example 5: herbicidal effect by foliage application, plastic box (Table 20, symbol J); format: in vivo, blackgrass (Alopecurus myosuroides); settings: for J: blackgrass, herbicidal effect grade: foliage application, three weeks after application
Outline: as §3

Italian ryegrass = assay: Test Example 5: herbicidal effect by foliage application, plastic box (Table 20, symbol K); format: in vivo, Italian ryegrass (Lolium multiflorum); settings: for K: Italian ryegrass, herbicidal effect grade: foliage application, three weeks after application
Outline: as §3

windgrass = assay: Test Example 5: herbicidal effect by foliage application, plastic box (Table 20, symbol L); format: in vivo, windgrass (Apera spica-venti); settings: for L: windgrass, herbicidal effect grade: foliage application, three weeks after application
Outline: as §3

velvetleaf = assay: Test Example 5: herbicidal effect by foliage application, plastic box (Table 20, symbol M); format: in vivo, velvetleaf (Abutilon theophrasti); settings: for M: velvetleaf, herbicidal effect grade: foliage application, three weeks after application
Outline: as §3

redroot pigweed = assay: Test Example 5: herbicidal effect by foliage application, plastic box (Table 20, symbol N); format: in vivo, redroot pigweed (Amaranthus retroflexus); settings: for N: redroot pigweed, herbicidal effect grade: foliage application, three weeks after application
Outline: as §3

lambsquarters = assay: Test Example 5: herbicidal effect by foliage application, plastic box (Table 20, symbol O); format: in vivo, lambsquarters (Chenopodium album); settings: for O: lambsquarters, herbicidal effect grade: foliage application, three weeks after application
Outline: as §3

chickweed = assay: Test Example 5: herbicidal effect by foliage application, plastic box (Table 20, symbol P); format: in vivo, common chickweed (Stellaria media); settings: for P: chickweed, herbicidal effect grade: foliage application, three weeks after application
Outline: as §3

persian speedwell = assay: Test Example 5: herbicidal effect by foliage application, plastic box (Table 20, symbol R); format: in vivo, Persian speedwell (Veronica persica); settings: for R: persian speedwell, herbicidal effect grade: foliage application, three weeks after application
Outline: as §3

[3] = amount of applied herbicide 320 g/ha
[4] = amount of applied herbicide 285 g/ha
[5] = 320 g/ha, foliage application after 14-day growth, evaluated three weeks after application

SMILES: CCCC(=O)Oc1c(C)nn(C)c(=O)c1-c1c(-c2ccc(Cl)cc2)sc2cc(F)ccc12 [3-016]
- herbicidal effect rating, A: late watergrass (late watergrass; AAH 320 g/ha): 3 (Herbicidal rate of 40% or more and less than 70%)
- herbicidal effect rating, B: Japanese bulrush (Japanese bulrush; AAH 320 g/ha): 0 (Herbicidal rate of 5% or less (almost no effect))
- herbicidal effect rating, C: oval-leafed pondweed (oval-leafed pondweed; AAH 320 g/ha): 0 (Herbicidal rate of 5% or less (almost no effect))
- herbicidal effect on H: barnyard grass (barnyard grass [1]; [3]): 3 (Herbicidal rate of 40% or more and less than 70%)
- herbicidal effect on D: Chinese sprangletop (Chinese sprangletop; [3]): 4 (Herbicidal rate of 70% or more and less than 90%)
- herbicidal effect on E: rice flat sedge (rice flat sedge; [3]): 4 (Herbicidal rate of 70% or more and less than 90%)
- F: southern crabgrass, herbicidal effect grade (southern crabgrass; 320 g/ha): 0 (Herbicidal rate of 5% or less (almost no effect))
- G: green foxtail, herbicidal effect grade (green foxtail; 320 g/ha): 0 (Herbicidal rate of 5% or less (almost no effect))
- H: barnyard grass, herbicidal effect grade (barnyard grass [2]; 320 g/ha): 0 (Herbicidal rate of 5% or less (almost no effect))
- I: wild oat, herbicidal effect grade (wild oat; 320 g/ha): 1 (Herbicidal rate of 5% or more and less than 20%)
- J: blackgrass, herbicidal effect grade (blackgrass; 320 g/ha): 0 (Herbicidal rate of 5% or less (almost no effect))
- K: Italian ryegrass, herbicidal effect grade (Italian ryegrass; 320 g/ha): 0 (Herbicidal rate of 5% or less (almost no effect))
- L: windgrass, herbicidal effect grade (windgrass; 320 g/ha): 5 (Herbicidal rate of 90% or more (almost completely withered))
- M: velvetleaf, herbicidal effect grade (velvetleaf; 320 g/ha): 3 (Herbicidal rate of 40% or more and less than 70%)
- N: redroot pigweed, herbicidal effect grade (redroot pigweed; 320 g/ha): 1 (Herbicidal rate of 5% or more and less than 20%)
- O: lambsquarters, herbicidal effect grade (lambsquarters; 320 g/ha): 3 (Herbicidal rate of 40% or more and less than 70%)
- P: chickweed, herbicidal effect grade (chickweed; 320 g/ha): 3 (Herbicidal rate of 40% or more and less than 70%)
- R: persian speedwell, herbicidal effect grade (persian speedwell; 320 g/ha): 4 (Herbicidal rate of 70% or more and less than 90%)

SMILES: CCOC(=O)OC(C)Oc1c(C)nn(C)c(=O)c1-c1c(-c2ccccc2OC)sc2cc(F)ccc12 (stereo not drawn) [3-029]
- herbicidal effect rating, A: late watergrass (late watergrass; AAH 285 g/ha): 0 (Herbicidal rate of 5% or less (almost no effect))
- herbicidal effect rating, B: Japanese bulrush (Japanese bulrush; AAH 285 g/ha): 3 (Herbicidal rate of 40% or more and less than 70%)
- herbicidal effect rating, C: oval-leafed pondweed (oval-leafed pondweed; AAH 285 g/ha): 1 (Herbicidal rate of 5% or more and less than 20%)
- herbicidal effect on H: barnyard grass (barnyard grass [1]; [4]): 5 (Herbicidal rate of 90% or more (almost completely withered))
- herbicidal effect on D: Chinese sprangletop (Chinese sprangletop; [4]): 3 (Herbicidal rate of 40% or more and less than 70%)
- herbicidal effect on E: rice flat sedge (rice flat sedge; [4]): 5 (Herbicidal rate of 90% or more (almost completely withered))
- F: southern crabgrass, herbicidal effect grade (southern crabgrass; 285 g/ha): 3 (Herbicidal rate of 40% or more and less than 70%)
- G: green foxtail, herbicidal effect grade (green foxtail; 285 g/ha): 5 (Herbicidal rate of 90% or more (almost completely withered))
- H: barnyard grass, herbicidal effect grade (barnyard grass [2]; 285 g/ha): 4 (Herbicidal rate of 70% or more and less than 90%)
- I: wild oat, herbicidal effect grade (wild oat; 285 g/ha): 1 (Herbicidal rate of 5% or more and less than 20%)
- J: blackgrass, herbicidal effect grade (blackgrass; 285 g/ha): 4 (Herbicidal rate of 70% or more and less than 90%)
- K: Italian ryegrass, herbicidal effect grade (Italian ryegrass; 285 g/ha): 3 (Herbicidal rate of 40% or more and less than 70%)
- L: windgrass, herbicidal effect grade (windgrass; 285 g/ha): 4 (Herbicidal rate of 70% or more and less than 90%)
- M: velvetleaf, herbicidal effect grade (velvetleaf; 285 g/ha): 5 (Herbicidal rate of 90% or more (almost completely withered))
- N: redroot pigweed, herbicidal effect grade (redroot pigweed; 285 g/ha): 5 (Herbicidal rate of 90% or more (almost completely withered))
- O: lambsquarters, herbicidal effect grade (lambsquarters; 285 g/ha): 3 (Herbicidal rate of 40% or more and less than 70%)
- P: chickweed, herbicidal effect grade (chickweed; 285 g/ha): 4 (Herbicidal rate of 70% or more and less than 90%)
- R: persian speedwell, herbicidal effect grade (persian speedwell; 285 g/ha): 0 (Herbicidal rate of 5% or less (almost no effect))

SMILES: CCCC(=O)Oc1c(C)nn(C)c(=O)c1-c1c(-c2ccc(Cl)cc2)sc2c(Cl)cccc12 [4-018]
- herbicidal effect rating, A: late watergrass (late watergrass; AAH 320 g/ha): 0 (Herbicidal rate of 5% or less (almost no effect))
- herbicidal effect rating, B: Japanese bulrush (Japanese bulrush; AAH 320 g/ha): 3 (Herbicidal rate of 40% or more and less than 70%)
- herbicidal effect rating, C: oval-leafed pondweed (oval-leafed pondweed; AAH 320 g/ha): 3 (Herbicidal rate of 40% or more and less than 70%)
- herbicidal effect on barnyard grass (H) (barnyard grass [1]; 320 g/ha): 4 (Herbicidal rate of 70% or more and less than 90%)
- herbicidal effect on Chinese sprangletop (D) (Chinese sprangletop; 320 g/ha): 4 (Herbicidal rate of 70% or more and less than 90%)
- herbicidal effect on rice flat sedge (E) (rice flat sedge; 320 g/ha): 3 (Herbicidal rate of 40% or more and less than 70%)
- herbicidal effect on F: southern crabgrass (evaluation grade 0-5) (southern crabgrass; [5]): 0 (Herbicidal rate of 5% or less (almost no effect))
- herbicidal effect on G: green foxtail (evaluation grade 0-5) (green foxtail; [5]): 0 (Herbicidal rate of 5% or less (almost no effect))
- herbicidal effect on H: barnyard grass (evaluation grade 0-5) (barnyard grass [2]; [5]): 0 (Herbicidal rate of 5% or less (almost no effect))
- herbicidal effect on I: wild oat (evaluation grade 0-5) (wild oat; [5]): 3 (Herbicidal rate of 40% or more and less than 70%)
- herbicidal effect on J: blackgrass (evaluation grade 0-5) (blackgrass; [5]): 4 (Herbicidal rate of 70% or more and less than 90%)
- herbicidal effect on K: Italian ryegrass (evaluation grade 0-5) (Italian ryegrass; [5]): 3 (Herbicidal rate of 40% or more and less than 70%)
- herbicidal effect on L: windgrass (evaluation grade 0-5) (windgrass; [5]): 5 (Herbicidal rate of 90% or more (almost completely withered))
- herbicidal effect on M: velvetleaf (evaluation grade 0-5) (velvetleaf; [5]): 4 (Herbicidal rate of 70% or more and less than 90%)
- herbicidal effect on N: redroot pigweed (evaluation grade 0-5) (redroot pigweed; [5]): 3 (Herbicidal rate of 40% or more and less than 70%)
- herbicidal effect on O: lambsquarters (evaluation grade 0-5) (lambsquarters; [5]): 0 (Herbicidal rate of 5% or less (almost no effect))
- herbicidal effect on P: chickweed (evaluation grade 0-5) (chickweed; [5]): 5 (Herbicidal rate of 90% or more (almost completely withered))
- herbicidal effect on R: persian speedwell (evaluation grade 0-5) (persian speedwell; [5]): 4 (Herbicidal rate of 70% or more and less than 90%)
